ChEMBL document CHEMBL4477224, “Antidiabetic effect, antioxidant activity, and toxicity of 3',4'-Di-O-acetyl-cis-khellactone in Streptozotocin-induced diabetic rats” (Bioorg Med Chem Lett, 2016)
Activity calls are given as the source filed them. No cut-off for these calls is given here.

Tests used:
[1] = Mutagenicity in Salmonella typhimurium TA98 assessed as mutagenic index at 100 uM/plate after 48 hrs in presence of S9 fraction by Ames test relative to control; type: toxicity, subcellular; conditions: salmonella enterica subsp. enterica serovar typhimurium, s9, 48 h
Rattus norvegicus [2] = test: Antidiabetic activity in STZ-induced diabetic Wistar rat blood assessed as urea level at 15 mg/kg, po administered for 15 days (reference value: 62.98 +/- 6.21 mg/dl); type: functional
Rattus norvegicus [3] = test: Antioxidant activity in STZ-induced diabetic Wistar rat liver assessed as catalase level measured as H2O2 consumption per mg of protein at 15 mg/kg, po administered for 15 days (reference value: 68.9 +/- 11.1 microM/min); type: functional
Rattus norvegicus [4] = test: Antidiabetic activity in STZ-induced diabetic Wistar rat assessed as increase in beta cells at 15 mg/kg, po administered for 15 days by fluorescence microscopy; type: functional, organism-based
[5] = Mutagenicity in Salmonella typhimurium TA100 assessed as mutagenic index at 50 uM/plate after 48 hrs in presence of S9 fraction by Ames test relative to control; type: toxicity, subcellular; conditions: salmonella enterica subsp. enterica serovar typhimurium, s9, 48 h
[6] = Mutagenicity in Salmonella typhimurium TA102 assessed as mutagenic index at 34.60 uM/plate after 48 hrs in presence of S9 fraction by Ames test relative to control; type: toxicity, subcellular; conditions: salmonella enterica subsp. enterica serovar typhimurium, s9, 48 h, 34.6 µM
[7] = Mutagenicity in Salmonella typhimurium TA100 assessed as mutagenic index at 8.65 uM/plate after 48 hrs in presence of S9 fraction by Ames test relative to control; type: toxicity, subcellular; conditions: salmonella enterica subsp. enterica serovar typhimurium, s9, 48 h
[8] = Mutagenicity in Salmonella typhimurium TA98 assessed as mutagenic index at 100 uM/plate after 48 hrs in absence of S9 fraction by Ames test relative to control; type: toxicity; conditions: salmonella enterica subsp. enterica serovar typhimurium, s9, 48 h
Rattus norvegicus [9] = test: Antioxidant activity in STZ-induced diabetic Wistar rat liver assessed as glutathione peroxidase level measured as NADPH consumption per mg of protein at 15 mg/kg, po administered for 15 days (reference value: 10 +/- 0.6 microM/min); type: functional
[10] = Mutagenicity in Salmonella typhimurium TA98 assessed as mutagenic index at 50 uM/plate after 48 hrs in presence of S9 fraction by Ames test relative to control; type: toxicity, subcellular; conditions: salmonella enterica subsp. enterica serovar typhimurium, s9, 48 h
Rattus norvegicus [11] = test: Antidiabetic activity in STZ-induced diabetic Wistar rat blood assessed as HDL level at 15 mg/kg, po administered for 15 days (reference value: 36.31 +/- 0.51 mg/dl); type: functional
Rattus norvegicus [12] = test: Antidiabetic activity in STZ-induced diabetic Wistar rat assessed as change in fasting blood glucose level at 15 mg/kg, po administered for 15 days post STZ challenge measured on day 21 by glucometry (reference value: 72.90 +/- 5.2 mg/dl); type: functional
Rattus norvegicus [13] = test: Antidiabetic activity in STZ-induced diabetic Wistar rat assessed as effect on hepatocytes surrounding central vein architecture at 15 mg/kg, po administered for 15 days by hematoxylin/eosin staining based microscopy; type: functional, organism-based
Rattus norvegicus [14] = test: Antidiabetic activity in STZ-induced diabetic Wistar rat assessed as increase in fasting blood glucose level at 15 mg/kg, po administered for 15 days post STZ challenge measured on day 21 by glucometry; type: functional
[15] = Mutagenicity in Salmonella typhimurium TA100 assessed as mutagenic index at 34.60 uM/plate after 48 hrs in absence of S9 fraction by Ames test relative to control; type: toxicity; conditions: salmonella enterica subsp. enterica serovar typhimurium, s9, 48 h, 34.6 µM
[16] = Mutagenicity in Salmonella typhimurium TA100 assessed as mutagenic index at 100 uM/plate after 48 hrs in presence of S9 fraction by Ames test relative to control; type: toxicity, subcellular; conditions: salmonella enterica subsp. enterica serovar typhimurium, s9, 48 h
Rattus norvegicus [17] = test: Antidiabetic activity in STZ-induced diabetic Wistar rat assessed as effect on islets of langerhans morphology at 15 mg/kg, po administered for 15 days by fluorescence microscopy; type: functional, organism-based
[18] = Mutagenicity in Salmonella typhimurium TA100 assessed as mutagenic index at 17.30 uM/plate after 48 hrs in absence of S9 fraction by Ames test relative to control; type: toxicity; conditions: salmonella enterica subsp. enterica serovar typhimurium, s9, 48 h, 17.3 µM
[19] = Mutagenicity in Salmonella typhimurium TA98 assessed as mutagenic index at 34.60 uM/plate after 48 hrs in absence of S9 fraction by Ames test relative to control; type: toxicity; conditions: salmonella enterica subsp. enterica serovar typhimurium, s9, 48 h, 34.6 µM
[20] = Mutagenicity in Salmonella typhimurium TA100 assessed as mutagenic index at 34.60 uM/plate after 48 hrs in presence of S9 fraction by Ames test relative to control; type: toxicity, subcellular; conditions: salmonella enterica subsp. enterica serovar typhimurium, s9, 48 h, 34.6 µM
[21] = Mutagenicity in Salmonella typhimurium TA100 assessed as mutagenic index at 8.65 uM/plate after 48 hrs in absence of S9 fraction by Ames test relative to control; type: toxicity; conditions: salmonella enterica subsp. enterica serovar typhimurium, s9, 48 h
[22] = Mutagenicity in Salmonella typhimurium TA102 assessed as mutagenic index at 100 uM/plate after 48 hrs in presence of S9 fraction by Ames test relative to control; type: toxicity, subcellular; conditions: salmonella enterica subsp. enterica serovar typhimurium, s9, 48 h
[23] = Mutagenicity in Salmonella typhimurium TA102 assessed as mutagenic index at 100 uM/plate after 48 hrs in absence of S9 fraction by Ames test relative to control; type: toxicity; conditions: salmonella enterica subsp. enterica serovar typhimurium, s9, 48 h
[24] = Mutagenicity in Salmonella typhimurium TA102 assessed as mutagenic index at 50 uM/plate after 48 hrs in presence of S9 fraction by Ames test relative to control; type: toxicity, subcellular; conditions: salmonella enterica subsp. enterica serovar typhimurium, s9, 48 h
Rattus norvegicus [25] = test: Antidiabetic activity in STZ-induced diabetic Wistar rat assessed as decrease in blood glucose level at 15 mg/kg, po administered for 15 days post STZ challenge measured on day 21 by glucometry relative to control; type: functional; parameters: scale not given: the % may be the effect or the level left
[26] = Acute toxicity in ig dosed BALB/c mouse assessed as mortality measured for 14 days; type: organism-based; conditions: in vivo, po
Rattus norvegicus [27] = test: Antidiabetic activity in STZ-induced diabetic Wistar rat assessed as change in fasting blood glucose level at 15 mg/kg, po administered on day 7 post STZ challenge measured immediately post dosage by glucometry (reference value: 72.90 +/- 5.2 mg/dl); type: functional
[28] = Mutagenicity in Salmonella typhimurium TA102 assessed as mutagenic index at 8.65 uM/plate after 48 hrs in absence of S9 fraction by Ames test relative to control; type: toxicity; conditions: salmonella enterica subsp. enterica serovar typhimurium, s9, 48 h
[29] = Mutagenicity in Salmonella typhimurium TA102 assessed as mutagenic index at 50 uM/plate after 48 hrs in absence of S9 fraction by Ames test relative to control; type: toxicity; conditions: salmonella enterica subsp. enterica serovar typhimurium, s9, 48 h
[30] = Mutagenicity in Salmonella typhimurium TA98 assessed as mutagenic index at 17.30 uM/plate after 48 hrs in absence of S9 fraction by Ames test relative to control; type: toxicity; conditions: salmonella enterica subsp. enterica serovar typhimurium, s9, 48 h, 17.3 µM
[31] = Mutagenicity in Salmonella typhimurium TA98 assessed as mutagenic index at 34.60 uM/plate after 48 hrs in presence of S9 fraction by Ames test relative to control; type: toxicity, subcellular; conditions: salmonella enterica subsp. enterica serovar typhimurium, s9, 48 h, 34.6 µM
Rattus norvegicus [32] = test: Antidiabetic activity in STZ-induced diabetic Wistar rat blood assessed as LDL level at 15 mg/kg, po administered for 15 days (reference value: 23.11 +/- 9.82 mg/dl); type: functional
[33] = Mutagenicity in Salmonella typhimurium TA100 assessed as mutagenic index at 100 uM/plate after 48 hrs in absence of S9 fraction by Ames test relative to control; type: toxicity; conditions: salmonella enterica subsp. enterica serovar typhimurium, s9, 48 h
Rattus norvegicus [34] = test: Antidiabetic activity in STZ-induced diabetic Wistar rat assessed as body weight at 15 mg/kg, po administered on day 7 post STZ challenge measured immediately post dosage (reference value: 319.4 +/- 6.9 g); type: functional

CC(=O)O[C@@H]1c2c(ccc3ccc(=O)oc23)OC(C)(C)[C@@H]1OC(C)=O (relative stereo) [QUIANHUCOUMARIN D]
Ratio [1]: 1.4
Activity (Rattus norvegicus [2]): 42.04 mg/dL
Activity (Rattus norvegicus [3]): 94.8 µM/min
Activity (Rattus norvegicus [4]): Active
Ratio [5]: 0.9
Ratio [6]: 1.4
Ratio [7]: 0.9
Ratio [8]: 0.4
Activity (Rattus norvegicus [9]): 119 µM/min
Ratio [10]: 1.1
Activity (Rattus norvegicus [11]): 29.77 mg/dL
Activity (Rattus norvegicus [12]): 128.3 mg/dL
Activity (Rattus norvegicus [13]): Active
Activity (Rattus norvegicus [14]): 55.35 mg/dL
Ratio [15]: 1
Ratio [16]: 1
Activity (Rattus norvegicus [17]): Active
Ratio [18]: 1
Ratio [19]: 0.8
Ratio [20]: 0.8
Ratio [21]: 1.3
Ratio [22]: 0.9
Ratio [23]: 0.8
Ratio [24]: 1.2
Activity (Rattus norvegicus [25]): 60.9%
LD50 at 336 h [26]: > 2000 mg/kg
Activity (Rattus norvegicus [27]): 363.2 mg/dL
Ratio [28]: 0.7
Ratio [29]: 1.1
Ratio [30]: 1
Ratio [31]: 1.2
Activity (Rattus norvegicus [32]): 22.38 mg/dL
Ratio [33]: 1.4
Activity (Rattus norvegicus [34]): 335.3 g
